From patent US20110306597A1, “Nicotinamide Derivatives” (priority 2008, published 2011)
pIC50: −log10 of the molar value.

What follows are compounds tested against human recombinant H-PGDS (Homo sapiens, UniProt O60760) (assay: Fluorescence Intensity h-PGDS TBA Enzyme Assay). Details: 1:175,000 human recombinant H-PGDS, highest inhibitor concentration typically 1 μM.
Type: biochemical
Method in brief: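 Recombinant human H-PGDS preincubated 10 min at room temperature with inhibitor in 100 mM Tris pH 8.0, 100 μM MgCl2, 2.5 mM glutathione, 0.5% DMSO; 5.0 μM PGH2 added, stopped after 42 s with FeCl2/citric acid. Remaining PGH2 measured as MDA–TBA fluorescence (ex 530/em 565 nm); IC50 by 4-parameter fit, 11 concentrations.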

Chain of human recombinant H-PGDS (O60760 whole entry): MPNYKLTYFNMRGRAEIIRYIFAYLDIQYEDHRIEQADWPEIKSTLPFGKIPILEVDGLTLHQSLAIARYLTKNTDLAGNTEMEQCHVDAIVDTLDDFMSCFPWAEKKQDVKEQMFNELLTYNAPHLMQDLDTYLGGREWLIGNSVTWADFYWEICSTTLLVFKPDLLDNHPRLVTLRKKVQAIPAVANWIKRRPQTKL

SMILES | pIC50
COc1cccc(-c2ccc(C(=O)NC3CCOC3=O)cn2)c1 (centres unmarked) [Example 293, 6-(3-Methoxyphenyl)-N-(2-oxotetrahydrofuran-3-yl)nicotinamide] | 6.29
CCOC(=O)CC(NC(=O)c1ccc(-c2cccc(OC)c2)nc1)c1ccc(OC)cc1 (centres unmarked) [Example 294, Ethyl 3-(4-methoxyphenyl)-3-({[6-(3-methoxyphenyl)pryidin-3-yl]carbonyl}amino) propanoate] | 6.72
COc1cccc(-c2ccc(C(=O)NC3CCN(Cc4ccc(Cl)c(Cl)c4)C3=O)cn2)c1 (centres unmarked) [Example 296, N-[1-(3,4-Dichlorobenzyl)-2-oxopyrrolidin-3-yl]-6-(3-methoxyphenyl)nicotinamide] | 6.68
CCOC(=O)CCCNC(=O)c1ccc(-c2cccc(OC)c2)nc1 [Example 301, Ethyl 4-({[6-(3-methoxyphenyl)pyridin-3-yl]carbonyl}amino)butanoate] | 7.30
COc1cccc(-c2ccc(C(=O)NCCC3CCCCO3)cn2)c1 (centres unmarked) [Example 304, 6-(3-Methoxyphenyl)-N-[2-(tetrahydro-2H-pyran-2-yl)ethyl]nicotinamide] | 6.75
COc1cccc(-c2ccc(C(=O)NC3CCOCC3)cn2)c1 [Example 305, 6-(3-Methoxyphenyl)-N-(tetrahydro-2H-pyran-4-yl)nicotinamide] | 7.41
COC(=O)CNC(=O)[C@H](C)NC(=O)c1ccc(-c2cccc(OC)c2)nc1 [Example 309, Methyl N-{[6-(3-methoxyphenyl)pyridin-3-yl]carbonyl}-L-alanylglycinate] | 6.25
Cc1cccc(-c2ccc(C(=O)NCc3cc(F)cc4c3OCOC4)cn2)c1 [Example 312, N-[(6-Fluoro-4H-1,3-benzodioxin-8-yl)methyl]-6-(3-methylphenyl)nicotinamide] | 7.70
COc1ccc(C(CNC(=O)c2ccc(-c3cccc(C)c3)nc2)N2CCOCC2)cc1 (centres unmarked) [Example 315, N-[2-(4-Methoxyphenyl)-2-morpholin-4-ylethyl]-6-(3-methylphenyl)nicotinamide] | 7.14
Cc1cccc(-c2ccc(C(=O)NC(C)c3ccncn3)cn2)c1 (centres unmarked) [Example 319, 6-(3-Methylphenyl)-N-(1-pyrimidin-4-ylethyl)nicotinamide] | 6.85
Cc1cccc(-c2ccc(C(=O)NCCC3CCCCO3)cn2)c1 (centres unmarked) [Example 320, 6-(3-Methylphenyl)-N-[2-(tetrahydro-2H-pyran-2-yl)ethyl]nicotinamide] | 7.76
Cc1cccc(-c2ccc(C(=O)NCCc3cccs3)cn2)c1 [Example 321, 6-(3-Methylphenyl)-N-[2-(2-thienyl)ethyl]nicotinamide] | 7.07
CS(=O)(=O)Cc1noc(CNC(=O)c2ccc(-c3ccc(F)cc3)nc2)n1 [Example 322, 6-(4-Fluorophenyl)-N-({3-[(methylsulfonyl)methyl]-1,2,4-oxadiazol-5-yl}methyl)nicotinamide] | ≤ 6.00
COC(=O)CC(NC(=O)c1ccc(-c2ccc(F)cc2)nc1)c1cccnc1 (centres unmarked) [Example 323, Methyl 3-({[6-(4-fluorophenyl)pyridin-3-yl]carbonyl}amino)-3-pyridin-3-ylpropanoate] | ≤ 6.00
O=C(NCCN1CCCCC1)c1ccc(-c2ccc(F)cc2)nc1 [Example 324, 6-(4-Fluorophenyl)-N-(2-piperidin-1-ylethyl)nicotinamide] | ≤ 6.00
CN(C)C(=O)CNC(=O)c1ccc(-c2ccc(F)cc2)nc1 [Example 325, N-[2-(Dimethylamino)-2-oxoethyl]-6-(4-fluorophenyl)nicotinamide] | ≤ 6.00
CCCCNC(=O)c1ccc(-c2ccc(F)cc2)nc1 [Example 326, N-Butyl-6-(4-fluorophenyl)nicotinamide] | 6.38
O=C(NCCCN1CCCC1=O)c1ccc(-c2ccc(F)cc2)nc1 [Example 327, 6-(4-Fluorophenyl)-N-[3-(2-oxopyrrolidin-1-yl)propyl]nicotinamide] | 6.22
O=C(Nc1cccnc1)c1ccc(-c2ccc(F)cc2)nc1 [Example 328, 6-(4-Fluorophenyl)-N-pyridin-3-ylnicotinamide] | 7.04
O=C(NCc1ccc(-n2cncn2)cc1)c1ccc(-c2ccc(F)cc2)nc1 [Example 329, 6-(4-Fluorophenyl)-N-[4-(1H-1,2,4-triazol-1-yl)benzyl]nicotinamide] | 6.26
CCOC(=O)CCCNC(=O)c1ccc(-c2ccc(F)cc2)nc1 [Example 330, Ethyl 4-({[6-(4-fluorophenyl)pyridin-3-yl]carbonyl}amino)butanoate] | 6.29
COc1cccc(-c2ccc(C(=O)NCCN3CCOCC3)cn2)c1 [Example 332, 6-(3-Methoxyphenyl)-N-(2-morpholin-4-ylethyl)nicotinamide] | 6.49
CCOC(=O)CC(NC(=O)c1ccc(-c2cccc(OC)c2)nc1)c1ccc(Cl)cc1 (centres unmarked) [Example 334, Ethyl 3-(4-chlorophenyl)-3-({[6-(3-methoxyphenyl)pyridin-3-yl]cabonyl}amino)propanoate] | ≤ 6.00

The next lines start with the values.

pIC50 | SMILES
6.69 | COc1cccc(-c2ccc(C(=O)NCc3ccc(-n4cncn4)cc3)cn2)c1 [Example 291, 6-(3-Methoxyphenyl)-N-[4-(1H-1,2,4-triazol-1-yl)benzyl]nicotinamide]
6.67 | COc1cccc(-c2ccc(C(=O)NCc3cccc(S(C)(=O)=O)c3)cn2)c1 [Example 292, 6-(3-Methoxyphenyl)-N-[3-(methylsulfonyl)benzyl] nicotinamide]
6.42 | COc1cccc(-c2ccc(C(=O)NCCN3CCN(Cc4ccccc4)CC3)cn2)c1 [Example 295, N-[2-(4-Benzylpiperazin-1-yl)ethyl]-6-(3-methoxyphenyl)nicotinamide]
6.45 | COc1cccc(-c2ccc(C(=O)NC(C)C)cn2)c1 [Example 297, N-Isopropyl-6-(3-methoxyphenyl)nicotinamide]
6.28 | COc1cccc(-c2ccc(C(=O)NCCN3CCOC3=O)cn2)c1 [Example 298, 6-(3-Methoxyphenyl)-N-[2-(2-oxo-1,3-oxazolidin-3-yl)ethyl]nicotinamide]
6.24 | COc1cccc(-c2ccc(C(=O)NC(C)c3ccncn3)cn2)c1 (centres unmarked) [Example 299, 6-(3-Methoxyphenyl)-N-(1-pyrimidin-4-ylethyl)nicotinamide]
6.12 | COc1cccc(-c2ccc(C(=O)NCCN3CCCC3=O)cn2)c1 [Example 300, 6-(3-methoxyphenyl)-N-[2-(2-oxopyrrolidin-1-yl)ethyl]nicotinamide]
6.75 | COc1cccc(-c2ccc(C(=O)NCCc3cccs3)cn2)c1 [Example 302, 6-(3-Methoxyphenyl)-N-[2-(2-thienyl)ethyl]nicotinamide]
6.48 | COc1ccc(CNC(=O)c2ccc(-c3cccc(OC)c3)nc2)cc1 [Example 303, N-(4-Methoxybenzyl)-6-(3-methoxyphenyl)nicotinamide]
6.41 | COC(=O)[C@H](Cc1ccc(Cl)cc1)NC(=O)c1ccc(-c2cccc(OC)c2)nc1 [Example 306, Methyl 4-chloro-N-{[6-(3-methoxyphenyl)pyridin-3-yl]carbonyl}phenylalaninate]
7.27 | COc1cccc(-c2ccc(C(=O)Nc3ccccc3)cn2)c1 [Example 308, 6-(3-Methoxyphenyl)-N-phenylnicotinamide]
7.71 | Cc1cccc(-c2ccc(C(=O)NCc3ccccc3)cn2)c1 [Example 310, N-Benzyl-6-(3-methylphenyl)nicotinamide]
6.43 | COc1cccc(-c2ccc(C(=O)NCc3cccc(F)c3)cn2)c1 [Example 311, N-(3-Fluorobenzyl)-6-(3-methoxyphenyl)nicotinamide]
8.12 | COc1cccc(-c2ccc(C(=O)NCC3C(=O)Nc4ccccc43)cn2)c1 (centres unmarked) [Example 313, 6-(3-Methoxyphenyl)-N-[(2-oxo-2,3-dihydro-1H-indol-3-yl)methyl]nicotinamide]
7.10 | Cc1cccc(-c2ccc(C(=O)NCc3ccc(F)cc3)cn2)c1 [Example 314, N-(4-Fluorobenzyl)-6-(3-methylphenyl)nicotinamide]
6.42 | COc1cccc(-c2ccc(C(=O)NCc3ccc(S(C)(=O)=O)cc3)cn2)c1 [Example 316, 6-(3-Methoxyphenyl)-N-[4-(methylsulfonyl)benzyl] nicotinamide]
6.82 | CNS(=O)(=O)c1ccc(CNC(=O)c2ccc(-c3cccc(OC)c3)nc2)cc1 [Example 317, 6-(3-Methoxyphenyl)-N-{4-[(methylamino)sulfonyl]benzyl}nicotinamide]
6.63 | CCOC(=O)C(CNC(=O)c1ccc(-c2cccc(OC)c2)nc1)c1c(F)cccc1F (centres unmarked) [Example 331, Ethyl 2-(2,6-difluorophenyl)-3-({[6-(3-methoxyphenyl)pyridin-3-yl]carbonyl}amino) propanoate]
7.11 | COc1cccc(-c2ccc(C(=O)NCc3ccccc3C)cn2)c1 [Example 333, 6-(3-Methoxyphenyl)-N-(2-methylbenzyl)nicotinamide]
6.45 | COC(=O)CCNC(=O)c1ccc(-c2cccc(OC)c2)nc1 [Example 335, Methyl N-{[6-(3-methoxyphenyl)pyridin-3-yl]carbonyl}-beta-alaninate]
7.06 | COc1cccc(-c2ccc(C(=O)Nc3ccncc3)cn2)c1 [Example 336, 6-(3-Methoxyphenyl)-N-pyridin-4-ylnicotinamide]
6.40 | COC(=O)CC(NC(=O)c1ccc(-c2cccc(OC)c2)nc1)c1cccnc1 (centres unmarked) [Example 337, Methyl 3-({[6-(3-methoxyphenyl)pyridin-3-yl]carbonyl}amino)-3-pyridin-3-ylpropanoate]
6.53 | COc1cccc(-c2ccc(C(=O)NCC(C)C)cn2)c1 [Example 338, N-isobutyl-6-(3-methoxyphenyl)nicotinamide]
6.58 | COc1cccc(-c2ccc(C(=O)NC(C)c3ccccc3)cn2)c1 (centres unmarked) [Example 339, 6-(3-Methoxyphenyl)-N-(1-phenylethyl)nicotinamide]
